Data published in the supplement of paper PMC10920090.

Legend:
[1] = test system: MDA-MB-231; experiment: drug sensitivity score (DSS), cell viability CellTiter-Glo; higher = more sensitive; extreme values may be limits of the assay; conditions: 72 h
[2] = test system: MDA-MB-231; experiment: drug sensitivity score (DSS), cytotoxicity CellTox Green; higher = more cytotoxic; extreme values may be limits of the assay; conditions: 72 h
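For drug sensitivity score (DSS), cytotoxicity CellTox Green in this document: DSS summarises each dose–response curve by combining IC50, EC50, maximal inhibition and efficacy across drug concentrations.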

SMILES | drug sensitivity score ([1]; shRNA: shPPFIA1_1) [DSS] | drug sensitivity score ([1]; shRNA: shScramble) [DSS] | drug sensitivity score ([2]; shRNA: shPPFIA1_1) [DSS] | drug sensitivity score ([2]; shRNA: shScramble) [DSS]
CC(C)c1cc(-c2n[nH]c(=O)n2-c2ccc3c(ccn3C)c2)c(O)cc1O [Ganetespib] | 9.9 | 11.5 | 1.2 | 3
CN(C)C1CCN(C(=O)c2ccc(NC(=O)Nc3ccc(-c4nc(N5CCOCC5)nc(N5CCOCC5)n4)cc3)cc2)CC1 [Gedatolisib] | 7.2 | 20.8 | 0 | 0
Nc1ccn([C@@H]2O[C@H](CO)[C@@H](O)C2(F)F)c(=O)n1 [Gemcitabine] | 1.3 | 8.6 | 0.3 | 0
CCN(CC)Cc1ccc2cc(COC(=O)Nc3ccc(C(=O)NO)cc3)ccc2c1 [Givinostat] | 0.9 | 4 | 2.4 | 3.4
CN1CC[C@@H](NC(=O)Nc2ccc(C#N)cc2)C[C@@H]1c1nc2ccccc2[nH]1 [Glasdegib] | 0 | 0 | 0 | 0
CN1CCN(C2CCN(C(=O)Nc3cc(Oc4ccc(NC(=O)C5(C(=O)Nc6ccc(F)cc6)CC5)c(F)c4)ccn3)CC2)CC1 [Golvatinib] | 0.2 | 2 | 0 | 0
CC(C)C[C@H](NC(=O)[C@@H](COC(C)(C)C)NC(=O)[C@H](Cc1ccc(O)cc1)NC(=O)[C@H](CO)NC(=O)[C@H](Cc1c[nH]c2ccccc12)NC(=O)[C@H](Cc1cnc[nH]1)NC(=O)[C@@H]1CCC(=O)N1)C(=O)N[C@@H](CCCNC(=N)N)C(=O)N1CCC[C@H]1C(=O)NNC(N)=O [Goserelin] | 0 | 0 | 0 | 0
O=S(=O)(c1cccc2c(O)nccc12)N1CCCNCC1 [Hydroxyfasudil] | 0 | 0 | 0 | 0
NC(=O)NO [Hydroxyurea] | 0 | 0 | 0 | 0
COc1cc2c(cc1-c1c(C)noc1C)ncc1[nH]c(=O)n([C@H](C)c3ccccn3)c12 [I-BET151] | 0 | 6.1 | 0 | 0
O=C(O)c1ccc(O)c2ncccc12 [IOX-1] | 0 | 0 | 0 | 0
O=C(O)CNC(=O)c1c(O)c2ccccc2n(Cc2ccccc2)c1=O [IOX-2] | 5 | 4 | 0 | 0
C=CC(=O)N1CCC[C@@H](n2nc(-c3ccc(Oc4ccccc4)cc3)c3c(N)ncnc32)C1 [Ibrutinib] | 0 | 0 | 0 | 0
C#Cc1cccc(Nc2ncnc3cc4c(cc23)OCCOCCOCCO4)c1 [Icotinib] | 6.2 | 3 | 0 | 0
CC(=O)[C@]1(O)Cc2c(O)c3c(c(O)c2[C@@H](O[C@H]2C[C@H](N)[C@H](O)[C@H](C)O2)C1)C(=O)c1ccccc1C3=O [Idarubicin] | 6.4 | 10.7 | 6.6 | 7.5
COc1cc(C(=O)O)ccc1NC(=O)[C@@H]1N[C@@H](CC(C)(C)C)[C@](C#N)(c2ccc(Cl)cc2F)[C@H]1c1cccc(Cl)c1F [Idasanutlin] | 0 | 0 | 2.6 | 0.6

SMILES | drug sensitivity score ([1]; shRNA: shPPFIA1_1) [DSS] | drug sensitivity score ([1]; shRNA: shScramble) [DSS] | drug sensitivity score ([2]; shRNA: shPPFIA1_1) [DSS] | drug sensitivity score ([2]; shRNA: shScramble) [DSS]
CC[C@H](Nc1ncnc2[nH]cnc12)c1nc2cccc(F)c2c(=O)n1-c1ccccc1 [Idelalisib] | 0 | 0.9 | 0 | 0
O=P1(NCCCl)OCCCN1CCCl (stereo not drawn) [Ifosfamide] | 0 | 0 | 0 | 0
Cc1ccc(NC(=O)c2ccc(CN3CCN(C)CC3)cc2)cc1Nc1nccc(-c2cccnc2)n1 [Imatinib] | 1.5 | 0 | 1.4 | 0
CC(C)Cn1cnc2c(N)nc3ccccc3c21 [Imiquimod] | 0 | 2.7 | 0.9 | 0
O=C(Nc1ccncc1)C(=O)c1cn(Cc2ccc(Cl)cc2)c2ccccc12 [Indibulin] | 0 | 3.1 | 2.3 | 0
NC(=O)c1ccc(I)c([N+](=O)[O-])c1 [Iniparib] | 0 | 0 | 0 | 0
CC(C)NC[C@@H](C(=O)N1CCN(c2ncnc3c2[C@H](C)C[C@H]3O)CC1)c1ccc(Cl)cc1 [Ipatasertib] | 3.3 | 3.7 | 0 | 0
CCc1c2c(nc3ccc(OC(=O)N4CCC(N5CCCCC5)CC4)cc13)-c1cc3c(c(=O)n1C2)COC(=O)[C@]3(O)CC [Irinotecan] | 0 | 0.3 | 0 | 0
CCC(C)n1ncn(-c2ccc(N3CCN(c4ccc(OCC5COC(Cn6cncn6)(c6ccc(Cl)cc6Cl)O5)cc4)CC3)cc2)c1=O (stereo not drawn) [Itraconazole] | 4.8 | 5.6 | 0 | 0
C/C(=C\c1csc(C)n1)[C@@H]1C[C@@H]2O[C@]2(C)CCC[C@H](C)[C@H](O)[C@@H](C)C(=O)C(C)(C)[C@@H](O)CC(=O)N1 [Ixabepilone] | 0 | 5 | 3.8 | 3.1
CCCNC(=O)Nc1ccc(Oc2ncnc3cc(OC)c(OC)cc23)cc1Cl [KRN-633] | 0 | 0.9 | 0 | 0
O=C(c1ccc(/C=C/c2n[nH]c3ccccc23)cc1)N1CCNCC1 [KW-2449] | 0 | 0 | 0 | 0
O=C(Cc1ccc(-c2ccc(OCCN3CCOCC3)cc2)cn1)NCc1ccccc1 [KX2-391] | 2.1 | 8.2 | 5.5 | 1.8
CN[C@@H](C)C(=O)N[C@H](C(=O)N1CCC[C@H]1c1nc(C(=O)c2ccc(F)cc2)cs1)C1CCCCC1 [LCL161] | 20.5 | 2.5 | 40.9 | 24.4
CS(=O)(=O)CCNCc1ccc(-c2ccc3ncnc(Nc4ccc(OCc5cccc(F)c5)c(Cl)c4)c3c2)o1 [Lapatinib] | 0 | 0 | 0 | 0
Oc1ccc2c(c1)CC[C@H](c1ccccc1)[C@@H]2c1ccc(OCCN2CCCC2)cc1 [Lasofoxifene] | 0 | 0.4 | 0 | 0
